Data reported in patent publication US10344060B2 (priority 2013, dated 2019).
pIC50: −log10 of the molar value.

Columns and labels:
Test in all cases: cell-based
hNav1.4 [1] = biological target: T1, hNav1.4 (Homo sapiens, UniProt P35499); type: cell-based; details: ratio of IonWorks Quattro IC50 values
hNav1.7 [2] = biological target: T2, hNav1.7 (Homo sapiens, UniProt Q15858); details: ratio of IonWorks Quattro IC50 values, Nav1.4 over Nav1.7
hNav1.7 [3] = biological target: T2, hNav1.7; type: cell-based; details: Table 12; PatchXpress, tonic block; read-out: PX hNav1.7 Tonic IC50
hNav1.4 [4] = biological target: T1, hNav1.4; type: cell-based; details: Table 12

T1 sequence (P35499 whole entry): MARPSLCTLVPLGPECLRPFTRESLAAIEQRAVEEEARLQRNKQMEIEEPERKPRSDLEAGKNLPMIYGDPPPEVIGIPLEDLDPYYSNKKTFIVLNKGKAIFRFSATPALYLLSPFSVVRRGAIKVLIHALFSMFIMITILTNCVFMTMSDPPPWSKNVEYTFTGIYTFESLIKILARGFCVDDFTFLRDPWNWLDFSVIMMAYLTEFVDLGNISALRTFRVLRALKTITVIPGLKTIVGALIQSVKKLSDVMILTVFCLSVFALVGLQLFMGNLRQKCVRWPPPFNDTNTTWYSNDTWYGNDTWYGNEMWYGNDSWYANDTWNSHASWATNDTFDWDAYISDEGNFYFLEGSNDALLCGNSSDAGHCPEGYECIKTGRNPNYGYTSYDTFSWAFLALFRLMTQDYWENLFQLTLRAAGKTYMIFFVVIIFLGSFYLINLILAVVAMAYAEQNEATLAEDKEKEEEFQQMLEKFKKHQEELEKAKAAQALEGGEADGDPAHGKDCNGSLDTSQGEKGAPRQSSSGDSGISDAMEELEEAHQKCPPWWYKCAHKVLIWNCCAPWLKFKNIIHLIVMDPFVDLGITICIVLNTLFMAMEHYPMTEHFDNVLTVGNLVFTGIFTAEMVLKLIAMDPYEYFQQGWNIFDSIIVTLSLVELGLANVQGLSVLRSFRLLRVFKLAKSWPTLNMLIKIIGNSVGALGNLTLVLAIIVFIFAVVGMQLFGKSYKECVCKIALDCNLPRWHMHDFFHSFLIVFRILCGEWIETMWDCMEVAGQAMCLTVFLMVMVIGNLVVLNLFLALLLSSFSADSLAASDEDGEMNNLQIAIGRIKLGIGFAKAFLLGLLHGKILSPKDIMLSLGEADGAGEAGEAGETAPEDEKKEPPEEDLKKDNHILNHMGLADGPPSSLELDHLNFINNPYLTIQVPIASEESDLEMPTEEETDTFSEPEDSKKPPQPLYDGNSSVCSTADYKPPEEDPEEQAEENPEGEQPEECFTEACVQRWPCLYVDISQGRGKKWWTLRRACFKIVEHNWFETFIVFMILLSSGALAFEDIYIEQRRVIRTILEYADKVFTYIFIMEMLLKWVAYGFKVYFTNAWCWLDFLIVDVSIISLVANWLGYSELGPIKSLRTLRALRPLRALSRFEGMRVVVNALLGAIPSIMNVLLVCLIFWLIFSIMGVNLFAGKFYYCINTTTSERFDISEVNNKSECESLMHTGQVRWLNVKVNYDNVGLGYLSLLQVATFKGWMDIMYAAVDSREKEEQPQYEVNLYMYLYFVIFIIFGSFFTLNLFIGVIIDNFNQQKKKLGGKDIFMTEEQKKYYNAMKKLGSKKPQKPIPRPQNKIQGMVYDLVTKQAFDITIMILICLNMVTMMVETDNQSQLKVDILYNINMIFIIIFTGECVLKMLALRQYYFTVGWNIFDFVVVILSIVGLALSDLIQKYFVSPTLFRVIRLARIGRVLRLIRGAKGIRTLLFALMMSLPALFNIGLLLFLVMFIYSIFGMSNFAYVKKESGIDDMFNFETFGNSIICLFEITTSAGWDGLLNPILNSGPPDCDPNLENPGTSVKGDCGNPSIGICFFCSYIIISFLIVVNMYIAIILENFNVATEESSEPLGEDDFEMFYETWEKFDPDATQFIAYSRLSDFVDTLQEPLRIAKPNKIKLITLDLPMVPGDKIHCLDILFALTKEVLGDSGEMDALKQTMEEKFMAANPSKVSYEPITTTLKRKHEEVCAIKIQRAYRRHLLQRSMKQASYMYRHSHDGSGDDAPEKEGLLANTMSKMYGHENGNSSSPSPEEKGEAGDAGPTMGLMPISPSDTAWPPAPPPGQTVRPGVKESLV
T2 sequence (Q15858 whole entry): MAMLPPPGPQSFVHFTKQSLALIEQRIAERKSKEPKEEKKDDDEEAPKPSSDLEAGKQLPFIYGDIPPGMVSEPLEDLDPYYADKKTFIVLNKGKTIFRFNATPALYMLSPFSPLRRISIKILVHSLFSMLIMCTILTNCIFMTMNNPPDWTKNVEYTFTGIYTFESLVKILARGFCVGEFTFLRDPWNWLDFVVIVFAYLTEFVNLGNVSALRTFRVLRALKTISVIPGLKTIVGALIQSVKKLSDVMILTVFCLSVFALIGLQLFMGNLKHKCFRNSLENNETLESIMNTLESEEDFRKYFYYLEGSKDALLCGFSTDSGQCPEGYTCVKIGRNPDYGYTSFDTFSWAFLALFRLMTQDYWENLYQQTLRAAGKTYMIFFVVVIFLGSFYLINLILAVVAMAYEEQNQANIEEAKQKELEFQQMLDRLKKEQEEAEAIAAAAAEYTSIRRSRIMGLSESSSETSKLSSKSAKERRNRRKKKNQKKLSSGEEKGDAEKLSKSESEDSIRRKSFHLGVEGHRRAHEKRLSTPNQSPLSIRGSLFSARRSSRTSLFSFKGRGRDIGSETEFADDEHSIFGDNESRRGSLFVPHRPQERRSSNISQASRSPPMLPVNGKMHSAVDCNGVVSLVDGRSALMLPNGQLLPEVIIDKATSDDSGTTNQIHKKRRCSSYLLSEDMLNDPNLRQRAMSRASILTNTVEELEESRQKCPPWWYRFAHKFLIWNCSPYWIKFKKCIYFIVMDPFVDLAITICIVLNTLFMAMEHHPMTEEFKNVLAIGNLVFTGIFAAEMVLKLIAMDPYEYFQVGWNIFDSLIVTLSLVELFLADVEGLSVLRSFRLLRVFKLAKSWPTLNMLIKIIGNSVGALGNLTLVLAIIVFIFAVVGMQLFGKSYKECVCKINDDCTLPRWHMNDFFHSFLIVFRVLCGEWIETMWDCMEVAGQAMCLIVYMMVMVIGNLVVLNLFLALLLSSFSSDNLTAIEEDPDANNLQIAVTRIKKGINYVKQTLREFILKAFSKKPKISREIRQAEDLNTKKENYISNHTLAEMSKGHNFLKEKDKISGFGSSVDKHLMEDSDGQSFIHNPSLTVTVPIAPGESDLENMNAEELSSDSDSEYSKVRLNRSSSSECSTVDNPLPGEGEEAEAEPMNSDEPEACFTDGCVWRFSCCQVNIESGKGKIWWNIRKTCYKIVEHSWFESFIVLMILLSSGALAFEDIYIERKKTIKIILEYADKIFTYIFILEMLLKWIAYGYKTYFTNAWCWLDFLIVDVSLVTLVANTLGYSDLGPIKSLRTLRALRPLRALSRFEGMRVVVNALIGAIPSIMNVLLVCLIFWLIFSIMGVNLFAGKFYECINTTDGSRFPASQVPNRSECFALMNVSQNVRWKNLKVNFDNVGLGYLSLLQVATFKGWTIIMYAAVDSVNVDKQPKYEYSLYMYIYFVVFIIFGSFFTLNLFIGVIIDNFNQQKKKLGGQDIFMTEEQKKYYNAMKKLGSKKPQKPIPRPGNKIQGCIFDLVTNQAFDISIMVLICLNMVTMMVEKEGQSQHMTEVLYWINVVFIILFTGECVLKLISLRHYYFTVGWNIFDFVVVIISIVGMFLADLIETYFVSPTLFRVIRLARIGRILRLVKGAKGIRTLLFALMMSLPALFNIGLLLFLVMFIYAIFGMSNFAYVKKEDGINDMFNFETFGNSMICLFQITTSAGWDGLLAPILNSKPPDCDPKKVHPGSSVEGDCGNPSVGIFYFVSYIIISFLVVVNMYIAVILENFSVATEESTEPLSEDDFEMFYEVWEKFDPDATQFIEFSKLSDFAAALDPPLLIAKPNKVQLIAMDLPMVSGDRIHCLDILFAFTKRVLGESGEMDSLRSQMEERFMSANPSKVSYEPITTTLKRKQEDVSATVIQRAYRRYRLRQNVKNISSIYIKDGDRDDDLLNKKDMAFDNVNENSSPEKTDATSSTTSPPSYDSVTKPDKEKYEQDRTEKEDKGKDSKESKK

Structure (SMILES) | Nav1.4/Nav1.7 (hNav1.7 [2]) | Nav1.4/Nav1.7 (hNav1.4 [1]; Table 9) | further results
CC[C@H](C)[C@H](NC(=O)[C@@H](NC(=O)[C@H](CCCCN)NC(=O)[C@H](CCCNC(=N)N)NC(=O)[C@@H]1CSSC[C@@H]2NC(=O)[C@H](C)NC(=O)[C@H](CCCNC(=N)N)NC(=O)[C@H](CCCCN)NC(=O)[C@H](CO)NC(=O)[C@H](CC(=O)O)NC(=O)[C@@H]3CSSC[C@H](NC(=O)[C@H](CCCNC(=N)N)NC(=O)[C@H](CC(C)C)NC(=O)CNC(=O)[C@H](Cc4cccc5ccccc45)NC(=O)[C@H](CSSC[C@H](NC(=O)[C@@H](N)Cc4ccc(O)cc4)C(=O)N[C@@H](CCC(N)=O)C(=O)N[C@@H](CCCCN)C(=O)N[C@@H](Cc4c[nH]c5ccccc45)C(=O)N[C@@H](CCSC)C(=O)N[C@@H](Cc4c[nH]c5ccccc45)C(=O)N[C@@H]([C@@H](C)O)C(=O)N3)NC2=O)C(=O)N[C@@H](CCCCN)C(=O)N[C@@H](CC(C)C)C(=O)N[C@@H](Cc2c[nH]c3ccccc23)C(=O)N1)[C@@H](C)CC)C(N)=O [compound 37] | – | – | Nav1.4/Nav1.7 (hNav1.4 [1]; Table 6): 4
CC[C@H](C)[C@H](NC(=O)[C@@H](NC(=O)[C@H](CCCCN)NC(=O)[C@H](CCCNC(=N)N)NC(=O)[C@@H]1CSSC[C@@H]2NC(=O)[C@H](C)NC(=O)[C@H](CCCNC(=N)N)NC(=O)[C@H](CCCCN)NC(=O)[C@H](CO)NC(=O)[C@H](CC(=O)O)NC(=O)[C@@H]3CSSC[C@H](NC(=O)[C@H](CCCNC(=N)N)NC(=O)[C@H](CC(C)C)NC(=O)CNC(=O)[C@H](CCC(=O)O)NC(=O)[C@H](CSSC[C@H](NC(=O)[C@@H](N)Cc4ccc(O)cc4)C(=O)N[C@@H](CCC(N)=O)C(=O)N[C@@H](CCCCN)C(=O)N[C@@H](Cc4c[nH]c5ccccc45)C(=O)N[C@@H](CCSC)C(=O)N[C@@H](Cc4c[nH]c5ccccc45)C(=O)N[C@@H]([C@@H](C)O)C(=O)N3)NC2=O)C(=O)N[C@@H](CCCCN)C(=O)N[C@@H](Cc2cccc3ccccc23)C(=O)N[C@@H](Cc2c[nH]c3ccccc23)C(=O)N1)[C@@H](C)CC)C(N)=O [compound 42] | – | – | Nav1.4/Nav1.7 (hNav1.4 [1]; Table 6): 3
CCC[C@@H]1NC(=O)[C@H](Cc2c[nH]c3ccccc23)NC(=O)[C@H](CCCCN)NC(=O)[C@H](CCC(N)=O)NC(=O)[C@@H](NC(=O)[C@@H](N)Cc2ccc(O)cc2)CSSC[C@@H]2NC(=O)[C@@H]3CSSC[C@@H](C(=O)N[C@@H](CCCNC(=N)N)C(=O)N[C@@H](CCCCN)C(=O)N[C@H](C(=O)N[C@H](C(N)=O)[C@@H](C)CC)[C@@H](C)CC)NC(=O)[C@H](Cc4c[nH]c5ccccc45)NC(=O)[C@H](CC(C)C)NC(=O)[C@H](CCCCN)NC(=O)[C@H](CSSC[C@H](NC(=O)[C@H]([C@@H](C)O)NC(=O)[C@H](Cc4c[nH]c5ccccc45)NC1=O)C(=O)N[C@@H](CC(=O)O)C(=O)N[C@@H](CO)C(=O)N[C@@H](CCCCN)C(=O)N[C@@H](CCCNC(=N)N)C(=O)N[C@@H](C)C(=O)N3)NC(=O)[C@H](CCC(=O)O)NC(=O)[C@H](CC(C)C)NC(=O)CNC(=O)[C@H](CCC(=O)O)NC2=O [compound 111] | 7 | – | –
CC[C@H](C)[C@H](NC(=O)[C@H](CCCCN)NC(=O)[C@H](CCCNC(=N)N)NC(=O)[C@@H]1CSSC[C@@H]2NC(=O)[C@H](C)NC(=O)[C@H](CCCNC(=N)N)NC(=O)[C@H](CCCCN)NC(=O)[C@H](CO)NC(=O)[C@H](CC(=O)O)NC(=O)[C@@H]3CSSC[C@H](NC(=O)[C@H](CCC(=O)O)NC(=O)[C@H](CC(C)C)NC(=O)CNC(=O)[C@H](CCC(=O)O)NC(=O)[C@H](CSSC[C@H](NC(=O)[C@@H](N)Cc4ccc(O)cc4)C(=O)N[C@@H](CCC(N)=O)C(=O)N[C@@H](CCCCN)C(=O)N[C@@H](Cc4c[nH]c5ccccc45)C(=O)N[C@@H](CCSC)C(=O)N[C@@H](Cc4c[nH]c5ccccc45)C(=O)N[C@@H]([C@@H](C)O)C(=O)N3)NC2=O)C(=O)N[C@@H](CCCCN)C(=O)N[C@@H](CC(C)C)C(=O)N[C@@H](Cc2c[nH]c3ccccc23)C(=O)N1)C(=O)N[C@H](C(=O)N[C@@H](Cc1c[nH]c2ccccc12)C(N)=O)[C@@H](C)CC [compound 113] | 30 | – | –
CC[C@H](C)[C@H](NC(=O)[C@@H](NC(=O)[C@H](CCCCN)NC(=O)[C@H](CCCNC(=N)N)NC(=O)[C@@H]1CSSC[C@@H]2NC(=O)[C@H](C)NC(=O)[C@H](CCCNC(=N)N)NC(=O)[C@H](CCCCN)NC(=O)[C@H](CO)NC(=O)[C@H](CC(=O)O)NC(=O)[C@@H]3CSSC[C@H](NC(=O)[C@H](Cc4ccc(C(=O)O)cc4)NC(=O)[C@H](CC(C)C)NC(=O)CNC(=O)[C@H](CCC(=O)O)NC(=O)[C@H](CSSC[C@H](NC(=O)[C@@H](N)Cc4ccc(O)cc4)C(=O)N[C@@H](CCC(N)=O)C(=O)N[C@@H](CCCCN)C(=O)N[C@@H](Cc4c[nH]c5ccccc45)C(=O)N[C@@H](CCSC)C(=O)N[C@@H](Cc4c[nH]c5ccccc45)C(=O)N[C@@H]([C@@H](C)O)C(=O)N3)NC2=O)C(=O)N[C@@H](CCCCN)C(=O)N[C@@H](CC(C)C)C(=O)N[C@@H](Cc2c[nH]c3ccccc23)C(=O)N1)[C@@H](C)CC)C(N)=O [compound 114] | 24 | – | –
CC[C@H](C)[C@H](NC(=O)[C@@H](NC(=O)[C@H](CCCCN)NC(=O)[C@H](CCCNC(=N)N)NC(=O)[C@@H]1CSSC[C@@H]2NC(=O)[C@H](C)NC(=O)[C@H](CCCNC(=N)N)NC(=O)[C@H](CCCCN)NC(=O)[C@H](CO)NC(=O)[C@H](CC(=O)O)NC(=O)[C@@H]3CSSC[C@H](NC(=O)[C@H](CCC(=O)O)NC(=O)[C@H](CC(C)C)NC(=O)CNC(=O)[C@H](CCC(=O)O)NC(=O)[C@H](CSSC[C@H](NC(=O)[C@@H](N)Cc4cn(CCCOCCOCCOCCOCCOCCOCCOCCOCCOCCOCCN)nn4)C(=O)N[C@@H](CCC(N)=O)C(=O)N[C@@H](CCCCN)C(=O)N[C@@H](Cc4c[nH]c5ccccc45)C(=O)N[C@@H](CCSC)C(=O)N[C@@H](Cc4c[nH]c5ccccc45)C(=O)N[C@@H]([C@@H](C)O)C(=O)N3)NC2=O)C(=O)N[C@@H](CCCCN)C(=O)N[C@@H](CC(C)C)C(=O)N[C@@H](Cc2c[nH]c3ccccc23)C(=O)N1)[C@@H](C)CC)C(N)=O [compound 165] | – | 28 | –
CC[C@H](C)[C@H](NC(=O)[C@@H](NC(=O)[C@H](CCCCN)NC(=O)[C@H](CCCNC(=N)N)NC(=O)[C@@H]1CSSC[C@@H]2NC(=O)[C@H](C)NC(=O)[C@H](CCCNC(=N)N)NC(=O)[C@H](CCCCN)NC(=O)[C@H](CO)NC(=O)[C@H](CC(=O)O)NC(=O)[C@@H]3CSSC[C@H](NC(=O)[C@H](CCC(=O)O)NC(=O)[C@H](CC(C)C)NC(=O)CNC(=O)[C@H](Cc4cn(CCCOCCOCCOCCOCCOCCOCCOCCOCCOCCOCCN)nn4)NC(=O)[C@H](CSSC[C@H](NC(=O)[C@@H](N)Cc4ccc(O)cc4)C(=O)N[C@@H](CCC(N)=O)C(=O)N[C@@H](CCCCN)C(=O)N[C@@H](Cc4c[nH]c5ccccc45)C(=O)N[C@@H](CCSC)C(=O)N[C@@H](Cc4c[nH]c5ccccc45)C(=O)N[C@@H]([C@@H](C)O)C(=O)N3)NC2=O)C(=O)N[C@@H](CCCCN)C(=O)N[C@@H](CC(C)C)C(=O)N[C@@H](Cc2c[nH]c3ccccc23)C(=O)N1)[C@@H](C)CC)C(N)=O [compound 178] | – | 28 | –
CC[C@H](C)[C@H](NC(=O)[C@@H](NC(=O)[C@H](CCCCN)NC(=O)[C@H](CCCNC(=N)N)NC(=O)[C@@H]1CSSC[C@@H]2NC(=O)[C@H](C)NC(=O)[C@H](CCCNC(=N)N)NC(=O)[C@H](CCCCN)NC(=O)[C@H](CO)NC(=O)[C@H](CC(=O)O)NC(=O)[C@@H]3CSSC[C@H](NC(=O)[C@H](CCC(=O)O)NC(=O)[C@H](CC(C)C)NC(=O)CNC(=O)[C@H](CCC(=O)O)NC(=O)[C@H](CSSC[C@H](NC(=O)[C@@H](N)Cc4ccc(O)cc4)C(=O)N[C@@H](CCC(N)=O)C(=O)N[C@@H](CCCCN)C(=O)N[C@@H](Cc4c[nH]c5ccccc45)C(=O)N[C@@H](CCSC)C(=O)N[C@@H](Cc4c[nH]c5ccccc45)C(=O)N[C@@H]([C@@H](C)O)C(=O)N3)NC2=O)C(=O)N[C@@H](CCCCN)C(=O)N[C@@H](Cc2cn(CCCOCCOCCOCCOCCOCCOCCOCCOCCOCCOCCN)nn2)C(=O)N[C@@H](Cc2c[nH]c3ccccc23)C(=O)N1)[C@@H](C)CC)C(N)=O [compound 183] | – | 1 | –
CC[C@H](C)[C@H](NC(=O)[C@H](Cc1cn(CCCOCCOCCOCCOCCOCCOCCOCCOCCOCCOCCN)nn1)NC(=O)[C@H](CCCCN)NC(=O)[C@H](CCCNC(=N)N)NC(=O)[C@@H]1CSSC[C@@H]2NC(=O)[C@H](C)NC(=O)[C@H](CCCNC(=N)N)NC(=O)[C@H](CCCCN)NC(=O)[C@H](CO)NC(=O)[C@H](CC(=O)O)NC(=O)[C@@H]3CSSC[C@H](NC(=O)[C@H](CCC(=O)O)NC(=O)[C@H](CC(C)C)NC(=O)CNC(=O)[C@H](CCC(=O)O)NC(=O)[C@H](CSSC[C@H](NC(=O)[C@@H](N)Cc4ccc(O)cc4)C(=O)N[C@@H](CCC(N)=O)C(=O)N[C@@H](CCCCN)C(=O)N[C@@H](Cc4c[nH]c5ccccc45)C(=O)N[C@@H](CCSC)C(=O)N[C@@H](Cc4c[nH]c5ccccc45)C(=O)N[C@@H]([C@@H](C)O)C(=O)N3)NC2=O)C(=O)N[C@@H](CCCCN)C(=O)N[C@@H](CC(C)C)C(=O)N[C@@H](Cc2c[nH]c3ccccc23)C(=O)N1)C(N)=O [compound 187] | – | 3 | –
C#CC[C@H](N)C(=O)N[C@H]1CSSC[C@@H]2NC(=O)[C@@H]3CSSC[C@@H](C(=O)N[C@@H](CCCNC(=N)N)C(=O)N[C@@H](CCCCN)C(=O)N[C@@H](CCC(=O)O)C(=O)N[C@H](C(N)=O)[C@@H](C)CC)NC(=O)[C@H](Cc4c[nH]c5ccccc45)NC(=O)[C@H](CC(C)C)NC(=O)[C@H](CCCCN)NC(=O)[C@H](CSSC[C@H](NC(=O)[C@H]([C@@H](C)O)NC(=O)[C@H](Cc4c[nH]c5ccccc45)NC(=O)[C@H](CCCC)NC(=O)[C@H](Cc4c[nH]c5ccccc45)NC(=O)[C@H](CCCCN)NC(=O)[C@H](CCC(N)=O)NC1=O)C(=O)N[C@@H](CC(=O)O)C(=O)N[C@@H](CO)C(=O)N[C@@H](CCCCN)C(=O)N[C@@H](CCCNC(=N)N)C(=O)N[C@@H](C)C(=O)N3)NC(=O)[C@H](C(C)C)NC(=O)[C@H](CC(C)C)NC(=O)CNC(=O)[C@H](CCC(=O)O)NC2=O [compound 1688] | – | – | pIC50 (hNav1.7 [3]): 8.40; pIC50 (hNav1.4 [4]; PatchXpress, tonic block, read-out: PX hNav1.4 Tonic IC50): 5.95; Nav1.4/Nav1.7 (hNav1.4 [4]; ratio of PX tonic IC50 values): 280
